{"source": "patent EP2545917B1", "about": "“NOVEL EP4 AGONIST” (Kaken Pharmaceutical Co., Ltd., priority 2010, dated 2011)", "key": {"[1]": {"system": "dextran sodium sulfate-induced colitis", "experiment": "Therapeutic effect on remission/relapse model of dextran sodium sulfate-induced colitis in mice", "assay_type": "in vivo, BALB/c mice", "settings": "SASP 100 mg/kg", "description": "Next, therapeutic effect of compound F on colitis was studied in a chronic model. Female BALB/c mice, 6 weeks old, body weight about 20 g (Japan SLC) were purchased, acclimated for 1 week and used for the study. The mice were divided into a colitis induction group and a normal group. The colitis induction group was allowed to freely drink a 2.6 w/v% DSS (MP Biochemicals, M.W. 36,000- 50,000, Lot No. 4556J) solution to induce colitis. On day 8 when the stool score (defined in Example 23) of the colitis induction group reached about 4.5, the mice were subdivided into a control group, a compound F 1 mg/kg administration group and a salazosulfapyridine (SIGMA, Lot No. 085K1930, hereinafter to be abbreviated as SASP) 100 mg/kg administration group. Then the mice were allowed to freely drink distilled water instead of DSS solution for 9 days (remission period). After the grouping, the stool score was evaluated every 3 - 4 days. When the score of the control group reached about 1, the mice were again allowed to drink the DSS solution to cause a relapse (relapse period). The periods of remission and relapse were taken as 1 cycle and the cycle was repeated 5 times. As for the 5th cycle, however, only the remission period was performed.\nCompound F at a dose of 1 mg/kg and SASP at a dose of 100 mg/kg were orally administered once a day, daily, for 50 days from the initial remission period (day 8 from the start of 2.6 w/v% DSS drinking) to the fifth remission period (day 57 from the start of 2.6 w/v% DSS drinking). To the control group was orally administered a solvent (1 vol% ethanol solution) at 10 mL/kg. If a mouse had score 0 of both stool consistency score and occult blood score on the last day of each remission period, the mouse was regarded as \"in remission\". The remission ratio (%) was calculated as a ratio of mice in remission in each group. Eight to 10 mice were used for each group and the results are shown in average value."}, "[2]": {"system": "CD4+CD25- T cell transfer colitis", "experiment": "Prophylactic effect on CD4+CD25- T cell transfer colitis model in mice", "assay_type": "in vivo, C.B-17/Icr-scid mice", "settings": "scid mice, oral 1 mg/kg once a day for 20 days", "protocol": "Female BALB/cA Jcl mice, 6 weeks old, body weight 19 - 23 g (CLEA Japan, Inc.) and female C.B-17/Icr-scid mice (6 weeks old, CLEA Japan, Inc.) were purchased, acclimated for 1 week and used for the study. After laparotomy under ether anesthesia, BALB/cA Jcl mice were exsanguinated to death through the abdominal aorta and caudal vena cava, and the spleen was isolated. Splenocytes were prepared from the spleen and then CD4^+CD25^- T cells were prepared with a CD4^+ T cell Isolation Kit (No. 130-090-860, Milky Biotech Co., Ltd.) and CD25-Biotin antibody (No. 130-092-569, Milky Biotech Co., Ltd.). The cells were separated using the autoMACS Separator (Milky Biotech Co., Ltd.). The separated CD4^+CD25^- T cells were suspended in physiological phosphate buffer solution, and 2.5×10^5 cells per animal were intraperitoneally administered to C.B-17/Icr-scid mice to induce colitis. […] To the control group was orally administered a solvent (1 vol% ethanol solution) at 10 mL/kg. […] The fecal occult blood score was evaluated in the same manner as in Example 23. […] Eight to 10 mice were used for each group and the results were expressed as average."}, "[3]": {"system": "concanavalin A-induced hepatitis", "experiment": "Prophylactic effect on concanavalin A-induced hepatitis model in mice", "assay_type": "in vivo, BALB/c mice", "settings": "oral 1 hr before Con A, compound F 1 mg/10 mL/kg, prednisolone 5 mg/10 mL/kg, 20 hr after Con A", "protocol": "BALB/c mice (female, 7 weeks old, Japan SLC) were purchased, acclimated for 1 week and used for the study. Except the no-induction group, Con A (type IV, Sigma-Aldrich) dissolved in saline was administered from the tail vein of the mice at a dose of 12.5 mg/10 mL/kg to induce hepatitis. Twenty hr later, the mice were subjected to laparotomy under ether anesthesia. A 0.5 mL of blood sample was collected from the caudal vena cava and heparinized plasma was obtained to measure plasma ALT and AST activities. Test substances were compound F (1 mg/10 mL solution), prednisolone (Nacalai Tesque, 5 mg/10 mL suspension (with 0.5 w/v% methylcellulose)) and water for injection (administered to the control group), which were orally administered at a volume of 10 mL/kg 1 hr before Con A injection. Seven to 9 animals were used for each group. After logarithmic transformation of the data, one-way analysis of variance was performed for statistical evaluation."}, "[4]": {"system": "anti-Thy-1 antibody-induced glomerulonephritis", "experiment": "Anti-Thy-1 antibody-induced glomerulonephritis model in rats", "assay_type": "in vivo, Wistar rats", "settings": "oral 0.3 mg/kg twice a day", "protocol": "Male Slc: Wistar rats (6 weeks old, Japan SLC) were purchased, acclimated for 1 week and used for the study. Except the normal group, anti-Thy-1 antibody (mouse anti-CD90 antibody (UK-Serotech Ltd. Code:MCA47XZ, clone No: MRC OX-7, Lot No.0303)) was administered once intravenously to the animals. A mixture of compound F and compound J (F:J = 52:41, indicated as compound F/J) was orally administered from the day of the antibody administration (day 0) to day 6, daily, twice a day (morning and evening; each 0.3 mg/kg). After 3 days from the antibody administration, urine was collected for one day. On day 7 of the antibody administration, the animal was autopsied. The right kidney was isolated, weighed and fixed with formalin. Five to 8 animals were used for each group and the results were expressed as average ± standard deviation."}, "[5]": {"settings": "mice, oral once a day, Compound F 1 mg/kg"}}, "data": [{"smiles": "O=C(O)c1cc(/N=N/c2ccc(S(=O)(=O)Nc3ccccn3)cc2)ccc1O", "note": "[SASP, salazosulfapyridine, reference compound]", "values": [{"measurement": "Remission Ratio Average", "setting": "[1]; average of 5 remission periods, Compound F 1 mg/kg", "value": 40.0, "unit": "%"}, {"measurement": "effect on stool score in remission and relapse periods", "setting": "[1]; mice, oral once a day for 50 days, compound F 1 mg/kg", "value": "did not show a clear effect on the stool score in either the remission period or the relapse period"}, {"measurement": "Remission Ratio Cycle 1", "setting": "[1]; [5]", "value": 50.0, "unit": "%"}, {"measurement": "Remission Ratio Cycle 2", "setting": "[1]; [5]", "value": 50.0, "unit": "%"}, {"measurement": "Remission Ratio Cycle 3", "setting": "[1]; [5]", "value": 37.5, "unit": "%"}, {"measurement": "Remission Ratio Cycle 4", "setting": "[1]; [5]", "value": 50.0, "unit": "%"}, {"measurement": "Remission Ratio Cycle 5", "setting": "[1]; [5]", "value": 12.5, "unit": "%"}]}, {"smiles": "C[C@]12C=CC(=O)C=C1CC[C@@H]1[C@@H]2[C@@H](O)C[C@@]2(C)[C@H]1CC[C@]2(O)C(=O)CO", "note": "[prednisolone, reference compound]", "values": [{"measurement": "effect on body weight decrease score", "setting": "[2]", "value": "clearly worsened the score"}, {"measurement": "effect on stool consistency score", "setting": "[2]", "value": "failed to show a clear effect on the stool consistency score on day 21"}, {"measurement": "effect on increase of plasma ALT activity", "setting": "[3]", "value": "significantly and strongly suppressed the increase"}, {"measurement": "effect on increase of plasma AST activity", "setting": "[3]", "value": "significantly and strongly suppressed the increase"}]}, {"smiles": "Cc1cccc(C(C)[C@H](O)/C=C/[C@@H]2[C@@H]3[C@H](C[C@H]2O)O/C(=C\\CCCc2nnn[nH]2)C3(F)F)c1", "note": "(mixture of isomers) [compound F/J, 4-[(Z)-(1S,5R,6R,7R)-6-[(1E,3R,4RS)-3-hydroxy-4-(m-tolyl)-1-pentenyl]-7-hydroxy-2-oxa-4,4-difluoro-bicyclo[3.3.0]octan-3-ylidene]-1-(tetrazol-5-yl)butane]", "values": [{"measurement": "body weight", "setting": "[4]", "value": "a shift similar to that of the control group"}, {"measurement": "relative kidney weight", "setting": "[4]; day 7", "value": "a value lower than control and near the normal"}, {"measurement": "renal histopathology: total glomerular cells, mesangial region and PCNA-positive cells in the glomerulus", "setting": "[4]; day 7", "value": "significantly suppressed the increase in all of these measures"}, {"measurement": "24-hr urine protein", "setting": "[4]; urine collected after 3 days", "value": "a lower value than control"}, {"measurement": "24-hr urine volume", "setting": "[4]; urine collected after 3 days", "value": "of the same level as the normal group"}]}]}
